# Molecular target: T1, SMYD2 (Homo sapiens, UniProt Q9NRG4)
# T1 construct: Full length SMYD2 (NP 064582.2) was cloned; His6 (N, cleaved yes); FLAG (N); made in house; host or cells: Sf9 insect cells
# Assay: SMYD2 Biochemical Assay (3H-SAM, biotinylated peptide substrate, Flashplate)
# Conditions: Table 1; average of n = 1 to n = 50; read-out: SMYD2 Biochem IC50
# Description: S-adenosylmethionine (SAM), S-adenosylhomocysteine (SAH), bicine, Tween20, dimethylsulfoxide (DMSO), bovine skin gelatin (BSG), and Tris(2-carboxyethyl)phosphine hydrochloride (TCEP) were purchased from Sigma-Aldrich at the highest level of purity possible. ^3H-SAM was purchase from American Radiolabeled Chemicals with a specific activity of 80 Ci/mmol. 384-well streptavidin Flashplates were purchased from PerkinElmer.
# Peptide was synthesized with a N-terminal linker-affinity tag motif and a C-terminal amide cap by 21st Century Biochemicals. The peptide was high-performance liquid chromatography (HPLC) purified to greater than 95% purity and confirmed by liquid chromatography mass spectrometry (LC-MS). The sequence was […](K-Biot)-amide. (SEQ ID No: 3)
# Full length SMYD2 (NP 064582.2) was cloned into a pFastbac-Htb-lic vector with an N-terminal His6 tag and FLAG tag, preceded by a TEV protease cleavage site. The protein was expressed in Sf9 insect cells. Cells were resuspended in lysis buffer (25 mM HEPES-NaOH, pH 7.5, 200 mM NaCl, 5% glycerol, and 5 mM β-ME) and lysed by sonication. The protein was purified by Ni-NTA (Qiagen), followed by TEV cleavage to remove the His6 tag, subtractive Ni-NTA (Qiagen), and gel filtration chromatography using an […] (GE Healthcare). Purified protein was stored in 20 mM Tris-HCl, pH 8.0, 100 mM NaCl, and 1 mM TCEP.
# The assays were all performed in a buffer consisting of 20 mM Bicine (pH=7.6), 1 mM TCEP, 0.005% Bovine Skin Gelatin, and 0.002% Tween20, prepared on the day of use. Compounds in 100% DMSO (1 ul) were spotted into a polypropylene 384-well V-bottom plates (Greiner) using a Platemate Plus outfitted with a 384-channel head (Thermo Scientific). DMSO (1 ul) was added to Columns 11, 12, 23, 24, rows A-H for the maximum signal control and 1 ul of SAH, a known product and inhibitor of SMYD2, was added to columns 11, 12, 23, 24, rows I-P for the minimum signal control. A cocktail (40 ul) containing the SMYD2 enzyme was added by Multidrop Combi (Thermo-Fisher). The compounds were allowed to incubate with SMYD2 for 30 min at room temperature, then a cocktail (10 ul) containing ^3H-SAM and peptide was added to initiate the reaction (final volume=51 ul). The final concentrations of the components were as follows: SMYD2 was 1.5 nM, ^3H-SAM was 10 nM, and peptide was 60 nM, SAH in the minimum signal control wells was 1000 uM, and the DMSO concentration was 2%. The assays were stopped by the addition of non-radioactive SAM (10 ul) to a final concentration of 600 uM, which dilutes the ^3H-SAM to a level where its incorporation into the peptide substrate is no longer detectable. 50 ul of the reaction in the 384-well polypropylene plate was then transferred to a 384-well Flashplate and the biotinylated peptides were allowed to bind to the streptavidin surface for at least 1 hour before being washed three times with 0.1% Tween20 in a Biotek ELx405 plate washer. The plates were then read in a PerkinElmer TopCount plate reader to measure the quantity of ^3H-labeled peptide bound to the Flashplate surface, measured as disintegrations per minute (dpm) or alternatively, referred to as counts per minute (cpm).
# Where dpm=disintegrations per minute, cmpd=signal in assay well, and min and max are the respective minimum and maximum signal controls.
# Where top and bottom are the normally allowed to float, but may be fixed at 100 or 0 respectively in a 3-parameter fit. The Hill Coefficient normally allowed to float but may also be fixed at 1 in a 3-parameter fit. I is the compound concentration.
# SMYD2 biochemical assay data for representative Compounds of the Disclosure are presented in Tables 1-3 in the column titled “SMYD2 Biochem IC50 (μM).”
# T1 sequence (Q9NRG4 whole entry): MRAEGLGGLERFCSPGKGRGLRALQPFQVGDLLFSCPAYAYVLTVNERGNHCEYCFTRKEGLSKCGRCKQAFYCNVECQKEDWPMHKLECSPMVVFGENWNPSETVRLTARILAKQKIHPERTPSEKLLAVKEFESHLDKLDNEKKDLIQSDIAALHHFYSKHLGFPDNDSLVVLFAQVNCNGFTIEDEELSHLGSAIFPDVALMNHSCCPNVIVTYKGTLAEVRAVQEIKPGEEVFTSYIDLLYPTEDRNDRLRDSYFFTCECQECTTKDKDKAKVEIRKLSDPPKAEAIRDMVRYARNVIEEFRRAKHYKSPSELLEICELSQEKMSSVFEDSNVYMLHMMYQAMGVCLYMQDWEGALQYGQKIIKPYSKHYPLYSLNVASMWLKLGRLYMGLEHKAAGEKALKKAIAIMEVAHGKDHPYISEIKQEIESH
row,SMILES,IC50 [µM]
1,"C[C@H]1CN(C2CC2)C[C@H]1NC(=O)c1cc(C2CC2)on1 (racemic) [Cpd. No. 45, (±)-cis-5-cyclopropyl-N-(1-cyclopropyl-4-methylpyrrolidin-3-yl)isoxazole-3-carboxamide]",19.2
2,"C[C@@H]1CN(C2CC2)C[C@H]1NC(=O)c1cc(C2CC2)on1 (racemic) [Cpd. No. 46, (±)-trans-5-cyclopropyl-N-(1-cyclopropyl-4-methylpyrrolidin-3-yl)isoxazole-3-carboxamide]",2.75
3,"O=C(N[C@@H]1CN(C2CC2)C[C@@H]1CO)c1cc(C2CC2)on1 (racemic) [Cpd. No. 48, (±)-cis-5-cyclopropyl-N-(1-cyclopropyl-4-(hydroxymethyl)pyrrolidin-3-yl)isoxazole-3-carboxamide]",8.46
4,"C[C@H]1CNC[C@H]1NC(=O)c1cc(C2CC2)on1 (racemic) [compound 38, (±)-cis-5-cyclopropyl-N-(4-methylpyrrolidin-3-yl)isoxazole-3-carboxamide]",15.4
5,C[C@@H]1CN(C)C[C@H]1NC(=O)c1cc(C2CC2)on1 (racemic) [compound 39],33.6
6,"CN1C[C@@H](O)[C@H](NC(=O)c2cc(C3CC3)on2)C1 (racemic) [compound 40, (±)-trans-5-cyclopropyl-N-(-4-hydroxy-1-methylpyrrolidin-3-yl)isoxazole-3-carboxamide]",> 50
7,"C[C@@H]1CNC[C@H]1NC(=O)c1cc(C2CC2)on1 (racemic) [compound 43, (±)-trans-5-cyclopropyl-N-(4-methyl-pyrrolidin-3-yl)isoxazole-3-carboxamide]",> 50
8,C[C@H]1CN(C)C[C@H]1NC(=O)c1cc(C2CC2)on1 (racemic) [compound 44],4.6
9,"O=C(N[C@@H]1CN(C2CC2)C[C@H]1O)c1cc(C2CC2)on1 (racemic) [compound 47, (±)-trans-5-cyclopropyl-N-(1-cyclopropyl-4-hydroxypyrrolidin-3-yl)isoxazole-3-carboxamide]",> 50
10,"O=C(N[C@@H]1C[C@H](CO)N(C2CC2)C1)c1cc(C2CC2)on1 (racemic) [compound 49, (±)-cis-5-cyclopropyl-N-(1-cyclopropyl-5-(hydroxy-methyl)pyrrolidin-3-yl)isoxazole-3-carboxamide]",> 50

# Other lines, results leading:
row,IC50 [µM],SMILES
1,> 50,"C[C@H]1CN(C2CC2)C[C@@H]1NC(=O)c1cc(C2CC2)no1 (racemic) [compound 50, (±)-trans-3-cyclopropyl-N-(1-cyclopropyl-4-methylpyrrolidin-3-yl)isoxazole-5-carboxamide]"
2,7.9,"C[C@H]1CN(C2CC2)C[C@H]1NC(=O)c1cc(C2CC2)no1 (racemic) [compound 51, (±)-cis-3-cyclopropyl-N-(1-cyclopropyl-4-methylpyrrolidin-3-yl)isoxazole-5-carboxamide]"
3,> 50,"CCc1cc(C(=O)N[C@H]2CN(C3CC3)C[C@@H]2C)no1 (racemic) [compound 52, (±)-trans-N-(1-cyclopropyl-4-methylpyrrolidin-3-yl)-5-ethylisoxazole-3-carboxamide]"
4,> 50,"C[C@H]1CN(C2CC2)C[C@@H]1NC(=O)c1cc(C2CCCC2)on1 (racemic) [compound 53, (±)-trans-5-cyclopentyl-N-(1-cyclopropyl-4-methylpyrrolidin-3-yl)isoxazole-3-carboxamide]"
5,> 50,"C[C@H]1CN(C2CC2)C[C@H]1NC(=O)c1cc(C2CCCC2)on1 (racemic) [compound 54, (±)-cis-5-cyclopentyl-N-(1-cyclopropyl-4-methylpyrrolidin-3-yl)isoxazole-3-carboxamide]"

# Same assay, conditions: Table 2; average of n = 1 to n = 50; read-out: SMYD2 Biochem IC50
row,IC50 [µM],SMILES
1,> 50,"C[C@H]1C[C@@H](NC(=O)c2cc(C3CC3)on2)CN1 (racemic) [compound 63, (±)-cis 5-cyclopropyl-N-(5-methylpyrrolidin-3-yl)isoxazole-3-carboxamide]"
2,> 50,"C[C@H]1C[C@@H](NC(=O)c2cc(C3CC3)on2)CN1C (racemic) [compound 64, (±)-cis-5-cyclopropyl-N-(1,5-dimethylpyrrolidin-3-yl)isoxazole-3-carboxamide]"
